Experimental data published in patent US10590384B2, “Luterial and method for isolating and culturing the same” (LUTERION CO., LTD., priority 2014, dated 2020).
pIC50: −log10 of the molar value.

Tests used:
[1] = Measurement of ATP content in media (luciferin-luciferase reaction, luminometer); details: luterial media with SSF (12 hr) compared with luterial media with SSH (12 hr)
Procedure: SSH and SSF were further added to the media and their effects on ATP production by luterial were examined. A mediacontaining SSF induced higher ATP production by luterialcompared to a mediawith SSH, thus finding a medium mix that is capable of efficiently increasing the ATP production by luterial (FIG. 18).
10 mL of each of four media, including a control, luterial, luterial with SSH (12 hr) and luterial with SSF (12 hr), was placed in a tube, and glucose (100 mg/mL) and ADP substrate (1 mM) were added thereto, followed by culture in water bath at 37° C. At 30-min intervals after the start of the culture, 100 μl of a sample was collected, placed in a tube, and diluted 10-fold with 900 μl of distilled water. Then, 10 μl of the sample was transferred into a fresh tube, and 100 μl of luciferase reagent contained in the ATP kit was added thereto, and measurement was immediately performed five times using a luminometer.

[2] = system: SKOV3 ovarian cancer cell line; experiment: MTT assay, growth inhibition of SKOV3 ovarian cancer cell line; format: cell-based; details: positive control drug; cell line not stated (SKOV3 and A2780 tested, FIG. 27)

Structure (SMILES): O=c1c(O)c(-c2ccc(O)c(O)c2)oc2cc(O)ccc12 [SSF, fisetin]
- ATP concentration in luterial media with additive [1]: higher than that in the SSH-added group

Structure (SMILES): N.N.[Cl][Pt][Cl] [cisplatin]
- pIC50 [2]: 4.00
